From patent US20150025077A1 (COYOTE PHARMACEUTICALS, INC., priority 2012, published 2015)

tested on: HSP70; assay: HSP70 levels in Neuro 2a cells, ELISA; format: cell-based, mouse; settings: 100 nM, 48 hrs compound then 24 hrs GGTI-298
Protocol: Mouse neuroblastoma 2a cells were cultured in DMEM with 10% FBS for 24 hrs. […] After 24 hrs cells were harvested and lysates were prepared and analyzed by ELISA for HSP70. Compound ID numbers in table refer to structures in Table 1 and Table 2.

Going from `CCOC(=O)C=C1CCCCC1` [Compound 93] to `CCOC(=O)C1(C/C=C(\C)CC/C=C(\C)CC/C=C(\C)CCC=C(C)C)CCCC1=O` (stereo not shown) [Compound 79], the “HSP70 level, ELISA signal (absence of compounds normalized as 1.00)” value rises from 0.87 to 0.98.

First: CC(C)=CCC/C(C)=C/CC/C(C)=C/CC/C(C)=C/CCC(C)OC(=O)NC(C)C (racemic) [Compound 23a, 5E, 9E, 13E-Geranylgeranyl-rac-prop-2-yl iso-propyl carbamate]
Second: CC(C)=CCC/C(C)=C/CC/C(C)=C/CC/C(C)=C/CCC(=O)C(C)C [Compound 74]
The “HSP70 level, ELISA signal (absence of compounds normalized as 1.00)” value of the first is higher: 1.21 for the first, 1.08 for the second.

Going from `CON=C(C)CC/C=C(\C)CC/C=C(\C)CC/C=C(\C)CCC=C(C)C` [Compound 104] to `CCC(=O)CC/C=C(\C)CC/C=C(\C)CC/C=C(\C)CCC=C(C)C` [Compound 61], the “HSP70 level, ELISA signal (absence of compounds normalized as 1.00)” value rises from 0.90 to 0.98.

Going from `CC(C)=CCC/C(C)=C/CC/C(C)=C/CC/C(C)=C/C1=N[C@H](C)CO1` [Compound 27d, (R)-4-methyl-2-((1E,5E,9E)-2,6,10,14-tetramethylpentadeca-1,5,9,13-tetraen-1-yl)-4,5-dihydrooxazole] to `CCC(=CCCC(C)=O)CC/C=C(\C)CC/C=C(\C)CCC=C(C)C` [Compound 117], the “HSP70 level, ELISA signal (absence of compounds normalized as 1.00)” value rises from 1.04 to 1.08.

First: CC(C)=CCC/C(C)=C/CC/C(C)=C/CC/C(C)=C/CC/C(C)=N/OCc1ccccc1 [Compound 113]
Second: CC(C)=CCC/C(C)=C/CC/C(C)=C/CC/C(C)=C/COC(=O)Nc1ccccc1 [Compound 7n, Phenyl 2E, 6E, 10E-geranylgeranyl carbamate]
The “HSP70 level, ELISA signal (absence of compounds normalized as 1.00)” value of the first is lower: 1.01 for the first, 1.20 for the second.

Going from `CC(C)=CCC/C(C)=C/CC/C(C)=C/CC/C(C)=C/CN(C)C1CCCCC1` [Compound 17a, N-Cyclohexyl N-Methyl-2E,6E,10E-Geranylgeranyl amine] to `CCOC(=O)C(C)(C/C=C(\C)CC/C=C(\C)CC/C=C(\C)CCC=C(C)C)C(C)=O` (stereo not shown) [Compound 78], the “HSP70 level, ELISA signal (absence of compounds normalized as 1.00)” value falls from 1.09 to 1.00.

Compared with `CC(C)=CCC/C(C)=C/CC/C(C)=C/CC/C(C)=C/COC(=O)Nc1ccncc1` [Compound 39, (2E,6E,10E)-3,7,11,15-tetramethylhexadeca-2,6,10,14-tetraen-1-yl pyridin-4-ylcarbamate], `CC(C)=CCC/C(C)=C/CC/C(C)=C/CC/C(C)=C/COC(=S)Nc1cccnc1` [Compound 38a, O-((2E,6E,10E)-3,7,11,15-tetramethylhexadeca-2,6,10,14-tetraen-1-yl) pyridin-3-ylcarbamothioate] is lower in “HSP70 level, ELISA signal (absence of compounds normalized as 1.00)” value: 1.15 for the first, 0.79 for the second.

First: CC(C)=CCC/C(C)=C/CC/C(C)=C/c1ncc(C)o1 [Compound 15, 5-methyl-2-((1E,5E)-2,6,10-trimethylundeca-1,5,9-trien-1-yl)oxazole]
Second: CC(C)=CCC/C(C)=C/CC/C(C)=C/CC/C(C)=C/COC(=S)NCc1ccco1 [Compound 38b, O-((2E,6E,10E)-3,7,11,15-tetramethylhexadeca-2,6,10,14-tetraen-1-yl) (furan-2-ylmethyl)carbamothioate]
The “HSP70 level, ELISA signal (absence of compounds normalized as 1.00)” value of the first is higher: 1.08 for the first, 1.04 for the second.

First: CCOC(=O)C(C/C=C(\C)CC/C=C(\C)CC/C=C(\C)CCC=C(C)C)C(=O)C12CC3CC(CC(C3)C1)C2 (stereo not shown) [Compound 71]
Second: CC(C)=CCC/C(C)=C/CC/C(C)=C/CC/C(C)=C/COC(=S)Nc1ccccc1 [Compound 10k, Phenyl 2E,6E,10E-geranylgeranyl thiocarbamate]
The “HSP70 level, ELISA signal (absence of compounds normalized as 1.00)” value of the first is lower: 1.03 for the first, 1.11 for the second.

With `CC(C)=CCC/C(C)=C/CC/C(C)=C/CC/C(C)=C/COC(=O)Nc1ccc(C(=O)c2ccccc2)cc1` [Compound 7u, p-Benzoyl phenyl 2E, 6E, 10E-geranylgeranyl carbamate] the “HSP70 level, ELISA signal (absence of compounds normalized as 1.00)” value was 1.03.

same assay, conditions: 10uM, 48 hrs compound then 24 hrs GGTI-298

Going from `CC(C)=CCC/C(C)=C/CC/C(C)=C/COC(=O)NC1CCCCCC1` [Compound 8d, Cycloheptyl 2E, 6E-farnesyl carbamate] to `CC(C)=CCC/C(C)=C/CC/C(C)=C/COC(=O)NC1CCCC1` [Compound 8c, Cyclopentyl 2E, 6E-farnesyl carbamate], the “HSP70 level, ELISA signal (absence of compounds normalized as 1.00)” value rises from 1.33 to 1.46.

Going from `CC(C)=CCC/C(C)=C/CC/C(C)=C/COC(=O)Nc1ccc(C(F)(F)F)cc1` [Compound 8n, p-Trifluoromethylphenyl 2E, 6E-farnesyl carbamate] to `CC(C)=CCC/C(C)=C/CC/C(C)=C/CC/C(C)=C/COC(=O)Nc1ccc(C)cc1` [Compound 7o, P-Tolyl 2E, 6E, 10E-geranylgeranyl carbamate], the “HSP70 level, ELISA signal (absence of compounds normalized as 1.00)” value rises from 1.02 to 1.15.

Compared with `CC(C)=CCC/C(C)=C/CC/C(C)=C/CC/C(C)=C/CNC12CC3CC(CC(C3)C1)C2` [Compound 17e, N-Adamantyl-2E,6E,10E-Geranylgeranyl amine], `CC(C)=CCC/C(C)=C/CC/C(C)=C/CC/C(C)=C/CN(C)C1CCCCC1` [Compound 17a, N-Cyclohexyl N-Methyl-2E,6E,10E-Geranylgeranyl amine] is higher in “HSP70 level, ELISA signal (absence of compounds normalized as 1.00)” value: 1.06 for the first, 1.22 for the second.

Going from `CC(=O)NC(=S)OC/C=C(\C)CC/C=C(\C)CC/C=C(\C)CCC=C(C)C` [Compound 10g, Acetyl 2E,6E,10E-geranylgeranyl thiocarbamate] to `C=CCNC(=O)OC/C=C(\C)CC/C=C(\C)CC/C=C(\C)CCC=C(C)C` [Compound 7k, Allyl 2E, 6E, 10E-geranylgeranyl carbamate], the “HSP70 level, ELISA signal (absence of compounds normalized as 1.00)” value falls from 1.60 to 1.20.

First: CC(C)=CCC/C(C)=C/CC/C(C)=C/CC/C(C)=C/COC(=O)Nc1cccc2ccccc12 [Compound 7r, 1′-Naphthyl 2E, 6E, 10E-geranylgeranyl carbamate]
Second: COc1cc(NC(=O)OC/C=C(\C)CC/C=C(\C)CC/C=C(\C)CCC=C(C)C)cc(OC)c1OC [Compound 7v, 3′,4′,5′-Trimethoxyphenyl 2E, 6E, 10E-geranylgeranyl carbamate]
The “HSP70 level, ELISA signal (absence of compounds normalized as 1.00)” value of the first is lower: 0.89 for the first, 1.13 for the second.

First: COc1ccc(-c2nnc(/C=C(\C)CC/C=C(\C)CC/C=C(\C)CCC=C(C)C)o2)cc1OC [Compound 29d, 2-(3,4-dimethoxyphenyl)-5-((1E,5E,9E)-2,6,10,14-tetramethylpentadeca-1,5,9,13-tetraen-1-yl)-1,3,4-oxadiazole]
Second: COc1cc(C(=O)OC/C=C(\C)CC/C=C(\C)CC/C=C(\C)CCC=C(C)C)cc(OC)c1OC [Compound 2h, 2E, 6E, 10E-Geranylgeranyl-3′,4′,5′-trimethoxybenzoate]
The “HSP70 level, ELISA signal (absence of compounds normalized as 1.00)” value of the first is higher: 1.12 for the first, 0.94 for the second.

Going from `CCCCCCCN(C)C/C=C(\C)CC/C=C(\C)CC/C=C(\C)CCC=C(C)C` [Compound 17c, N-Heptyl-N-Methyl-2E,6E,10E-Geranylgeranyl amine] to `CCCCCN(C)C/C=C(\C)CC/C=C(\C)CC/C=C(\C)CCC=C(C)C` [Compound 17b, N-Methyl-N-n-pentyl-2E,6E,10E-Geranylgeranyl amine], the “HSP70 level, ELISA signal (absence of compounds normalized as 1.00)” value rises from 1.01 to 1.08.

First: CNC(=O)OC/C=C(\C)CC/C=C(\C)CCC=C(C)C [Compound 42]
Second: CCOC(=O)CNC(=O)OC/C=C(\C)CC/C=C(\C)CCC=C(C)C [Compound 8k, Carboethoxymethyl 2E, 6E-farnesyl carbamate]
The “HSP70 level, ELISA signal (absence of compounds normalized as 1.00)” value of the first is higher: 1.25 for the first, 0.99 for the second.

Going from `CC(C)=CCC/C(C)=C/CC/C(C)=C/CC/C(C)=C/C1=N[C@@H](CC(C)C)CO1` [Compound 27c, (S)-4-isobutyl-2-((1E,5E,9E)-2,6,10,14-tetramethylpentadeca-1,5,9,13-tetraen-1-yl)-4,5-dihydrooxazole] to `CC(C)=CCC/C(C)=C/CC/C(C)=C/CC/C(C)=C/C1=N[C@H](CC(C)C)CO1` [Compound 27f, (R)-4-isobutyl-2-((1E,5E,9E)-2,6,10,14-tetramethylpentadeca-1,5,9,13-tetraen-1-yl)-4,5-dihydrooxazole], the “HSP70 level, ELISA signal (absence of compounds normalized as 1.00)” value falls from 0.95 to 0.91.

First: CC(C)=CCC/C(C)=C/CC/C(C)=C/CC/C(C)=C/C1=N[C@H](C)CO1 [Compound 27d, (R)-4-methyl-2-((1E,5E,9E)-2,6,10,14-tetramethylpentadeca-1,5,9,13-tetraen-1-yl)-4,5-dihydrooxazole]
Second: CCOC(=O)CNC(=O)OC/C=C(\C)CC/C=C(\C)CC/C=C(\C)CCC=C(C)C [Compound 7p, Ethoxycarbonyl methyl 2E, 6E, 10E-geranylgeranyl carbamate]
The “HSP70 level, ELISA signal (absence of compounds normalized as 1.00)” value of the first is higher: 1.37 for the first, 1.00 for the second.

Going from `CC(C)=CCC/C(C)=C/CC/C(C)=C/CC/C(C)=C/COC(=O)c1cc([N+](=O)[O-])cc([N+](=O)[O-])c1` [Compound 2g, 2E, 6E, 10E-Geranylgeranyl-3′,5′-dinitrobenzoate] to `CCCCCCNC(=S)OC/C=C(\C)CC/C=C(\C)CC/C=C(\C)CCC=C(C)C` [Compound 10h, n-Hexyl 2E,6E,10E-geranylgeranyl thiocarbamate], the “HSP70 level, ELISA signal (absence of compounds normalized as 1.00)” value rises from 0.91 to 1.58.

Compared with `CC(C)=CCC/C(C)=C/c1nc(-c2ccccc2)co1` [Compound 32, (E)-2-(2,6-dimethylhepta-1,5-dien-1-yl)-4-phenyloxazole], `CC(C)=CCC/C(C)=C/c1nc(-c2cccnc2)no1` [Compound 35a, (E)-5-(2,6-dimethylhepta-1,5-dien-1-yl)-3-(pyridin-3-yl)-1,2,4-oxadiazole] is higher in “HSP70 level, ELISA signal (absence of compounds normalized as 1.00)” value: 0.96 for the first, 1.08 for the second.

First: CC(C)=CCC/C(C)=C/c1nc(-c2ccc(F)cc2)no1 [Compound 35b, (E)-5-(2,6-dimethylhepta-1,5-dien-1-yl)-3-(4-fluorophenyl)-1,2,4-oxadiazole]
Second: CC(C)=CCC/C(C)=C/c1nc(-c2ccncc2)no1 [Compound 35d, (E)-5-(2,6-dimethylhepta-1,5-dien-1-yl)-3-(pyridin-4-yl)-1,2,4-oxadiazole]
The “HSP70 level, ELISA signal (absence of compounds normalized as 1.00)” value of the first is lower: 0.95 for the first, 1.05 for the second.

For `CC(C)=CCC/C(C)=C/CC/C(C)=C/COS(=O)(=O)c1ccccc1` [Compound 6a, 2E, 6E-Farnesyl benzenesulfonate], the “HSP70 level, ELISA signal (absence of compounds normalized as 1.00)” value was 1.11.
